Data taken from ChEMBL document CHEMBL3044631, “Synthesis of 2-[4,5-dimethyl-1-(phenylamino)-1H-imidazol-2-ylthio]-N-(thiazole-2-yl)acetamide derivatives and their anticancer activities” (2013).

Experiments:
Type in all cases: functional
IGROV-1 = assay: Anticancer activity against Homo sapiens (human) IGROV1 cells assessed as cell growth promotion at 10 uM after 48 hr by SRB assay
UACC-62 = assay: Anticancer activity against Homo sapiens (human) UACC62 cells assessed as cell growth promotion at 10 uM after 48 hr by SRB assay
UACC-257 = assay: Anticancer activity against Homo sapiens (human) UACC257 cells assessed as cell growth promotion at 10 uM after 48 hr by SRB assay
T47D = assay: Anticancer activity against Homo sapiens (human) T47D cells assessed as cell growth promotion at 10 uM after 48 hr by SRB assay
Hs-578T = assay: Anticancer activity against Homo sapiens (human) Hs 578T cells assessed as cell growth promotion at 10 uM after 48 hr by SRB assay
DU-145 = assay: Anticancer activity against Homo sapiens (human) DU145 cells assessed as cell growth promotion at 10 uM after 48 hr by SRB assay
UO-31 = assay: Anticancer activity against Homo sapiens (human) UO31 cells assessed as cell growth promotion at 10 uM after 48 hr by SRB assay
TK-10 = assay: Anticancer activity against Homo sapiens (human) TK10 cells assessed as cell growth promotion at 10 uM after 48 hr by SRB assay
SN12C = assay: Anticancer activity against Homo sapiens (human) SN12C cells assessed as cell growth promotion at 10 uM after 48 hr by SRB assay
RXF 393 = assay: Anticancer activity against Homo sapiens (human) RXF393 cells assessed as cell growth promotion at 10 uM after 48 hr by SRB assay
786-0 = assay: Anticancer activity against Homo sapiens (human) 786-0 cells assessed as cell growth promotion at 10 uM after 48 hr by SRB assay
A498 = assay: Anticancer activity against Homo sapiens (human) A498 cells assessed as cell growth promotion at 10 uM after 48 hr by SRB assay
OVCAR-8 = assay: Anticancer activity against Homo sapiens (human) OVCAR8 cells assessed as cell growth promotion at 10 uM after 48 hr by SRB assay
OVCAR-4 = assay: Anticancer activity against Homo sapiens (human) OVCAR4 cells assessed as cell growth promotion at 10 uM after 48 hr by SRB assay
MDA-MB-468 = assay: Anticancer activity against Homo sapiens (human) MDA-MB-468 cells assessed as cell growth promotion at 10 uM after 48 hr by SRB assay
HCT-15 = assay: Anticancer activity against Homo sapiens (human) HCT15 cells assessed as cell growth promotion at 10 uM after 48 hr by SRB assay
HCT-116 = assay: Anticancer activity against Homo sapiens (human) HCT116 cells assessed as cell growth promotion at 10 uM after 48 hr by SRB assay
COLO 205 = assay: Anticancer activity against Homo sapiens (human) COLO205 cells assessed as cell growth promotion at 10 uM after 48 hr by SRB assay
NCI-H522 = assay: Anticancer activity against Homo sapiens (human) NCI-H522 cells assessed as cell growth promotion at 10 uM after 48 hr by SRB assay
NCI-H322M = assay: Anticancer activity against Homo sapiens (human) NCI-H322M cells assessed as cell growth promotion at 10 uM after 48 hr by SRB assay
NCI-H23 = assay: Anticancer activity against Homo sapiens (human) NCI-H23 cells assessed as cell growth promotion at 10 uM after 48 hr by SRB assay
NCI-H226 = assay: Anticancer activity against Homo sapiens (human) NCI-H226 cells assessed as cell growth promotion at 10 uM after 48 hr by SRB assay
HOP-62 = assay: Anticancer activity against Homo sapiens (human) HOP62 cells assessed as cell growth promotion at 10 uM after 48 hr by SRB assay
EKVX = assay: Anticancer activity against Homo sapiens (human) EKVX cells assessed as cell growth promotion at 10 uM after 48 hr by SRB assay
A549 = assay: Anticancer activity against Homo sapiens (human) A549/ATCC cells assessed as cell growth promotion at 10 uM after 48 hr by SRB assay
SR = assay: Anticancer activity against Homo sapiens (human) SR cells assessed as cell growth promotion at 10 uM after 48 hr by SRB assay
MOLT-4 = assay: Anticancer activity against Homo sapiens (human) MOLT4 cells assessed as cell growth promotion at 10 uM after 48 hr by SRB assay
HL-60(TB) = assay: Anticancer activity against Homo sapiens (human) HL-60(TB) cells assessed as cell growth promotion at 10 uM after 48 hr by SRB assay
SK-MEL-28 = assay: Anticancer activity against Homo sapiens (human) SK-MEL-28 cells assessed as cell growth promotion at 10 uM after 48 hr by SRB assay
SK-MEL-2 = assay: Anticancer activity against Homo sapiens (human) SK-MEL-2 cells assessed as cell growth promotion at 10 uM after 48 hr by SRB assay
MDA-MB-435 = assay: Anticancer activity against Homo sapiens (human) MDA-MB-435 cells assessed as cell growth promotion at 10 uM after 48 hr by SRB assay
M14 = assay: Anticancer activity against Homo sapiens (human) M14 cells assessed as cell growth promotion at 10 uM after 48 hr by SRB assay
Malme-3M = assay: Anticancer activity against Homo sapiens (human) MALME-3M cells assessed as cell growth promotion at 10 uM after 48 hr by SRB assay
LOX IMVI = assay: Anticancer activity against Homo sapiens (human) LOXIMVI cells assessed as cell growth promotion at 10 uM after 48 hr by SRB assay
SNB-75 = assay: Anticancer activity against Homo sapiens (human) SNB75 cells assessed as cell growth promotion at 10 uM after 48 hr by SRB assay
SF-295 = assay: Anticancer activity against Homo sapiens (human) SF295 cells assessed as cell growth promotion at 10 uM after 48 hr by SRB assay
SW-620 = assay: Anticancer activity against Homo sapiens (human) SW620 cells assessed as cell growth promotion at 10 uM after 48 hr by SRB assay
KM12 = assay: Anticancer activity against Homo sapiens (human) KM12 cells assessed as cell growth promotion at 10 uM after 48 hr by SRB assay
NCI-H460 = assay: Anticancer activity against Homo sapiens (human) NCI-H460 cells assessed as cell growth promotion at 10 uM after 48 hr by SRB assay
RPMI-8226 = assay: Anticancer activity against Homo sapiens (human) RPMI8226 cells assessed as cell growth promotion at 10 uM after 48 hr by SRB assay

Row | Structure (SMILES) | Activity (IGROV-1) [%] | Activity (UACC-62) [%] | Activity (UACC-257) [%] | Activity (T47D) [%] | Activity (Hs-578T) [%] | Activity (DU-145) [%] | Activity (UO-31) [%] | Activity (TK-10) [%] | Activity (SN12C) [%] | Activity (786-0) [%] | Activity (A498) [%] | Activity (OVCAR-8) [%] | Activity (OVCAR-4) [%] | Activity (MDA-MB-468) [%] | Activity (HCT-15) [%] | Activity (HCT-116) [%] | Activity (COLO 205) [%] | Activity (NCI-H522) [%] | Activity (NCI-H322M) [%] | Activity (NCI-H23) [%] | also measured
1 | Cc1nc(SCC(=O)Nc2nc(-c3ccc(Cl)cc3)cs2)n(Nc2ccccc2)c1C | 68.44 | 34.83 | 46.91 | 26.64 | 70.58 | 65.41 | 32.86 | 56.83 | 39.25 | 54.27 | 74.31 | 31.91 | 35.93 | 21.05 | 57.63 | 29.45 | 65.21 | 47.28 | 70.81 | 12.2 | Activity (RXF 393): 72.14%; Activity (NCI-H226): 59.84%; Activity (HOP-62): 48.49%; Activity (EKVX): 34.55%; Activity (A549): 28.85%; Activity (SR): 12.66%; Activity (MOLT-4): 41.02%; Activity (HL-60(TB)): 42.07%; Activity (SK-MEL-28): 54.29%; Activity (SK-MEL-2): 84.99%; Activity (MDA-MB-435): 41%; Activity (M14): 47.55%; Activity (Malme-3M): 99.3%; Activity (LOX IMVI): 26.08%; Activity (SNB-75): 39.12%; Activity (SF-295): 31.02%; Activity (SW-620): 73.1%; Activity (KM12): 57.14%; Activity (NCI-H460): 52.96%
2 | Cc1ccc(Nn2c(SCC(=O)Nc3nc(-c4ccccc4)cs3)nc(C)c2C)cc1 | 86 | 51.82 | 54.08 | 6.48 | 105.97 | 83.4 | 51.58 | 72.7 | 64.31 | 82.27 | 92.54 | 55.49 | 25.36 | 17.71 | 67.18 | 40.22 | 32.48 | 49.7 | 96.01 | 39.38 | Activity (RXF 393): 61.47%; Activity (NCI-H226): 46.34%; Activity (HOP-62): 67.17%; Activity (EKVX): 49.68%; Activity (A549): 46.29%; Activity (SR): 72.64%; Activity (RPMI-8226): 55.78%; Activity (MOLT-4): 54.72%; Activity (HL-60(TB)): 63.8%; Activity (SK-MEL-28): 77.24%; Activity (SK-MEL-2): 81.38%; Activity (MDA-MB-435): 76.71%; Activity (M14): 76.97%; Activity (Malme-3M): 92.03%; Activity (LOX IMVI): 51.93%; Activity (SNB-75): 38.33%; Activity (SF-295): 46.1%; Activity (SW-620): 98.8%; Activity (KM12): 82.85%; Activity (NCI-H460): 78.13%
3 | Cc1nc(SCC(=O)Nc2nccs2)n(Nc2ccccc2)c1C | 123.21 | 94.24 | 94.83 | 90.52 | 115.31 | 116.36 | 84.18 | 111.75 | 94.4 | 103.46 | 101.7 | 95.17 | 103.25 | 105.55 | 97.16 | 93.75 | 117.71 | 102.09 | 118.03 | 97.67 | Activity (RXF 393): 83.96%; Activity (NCI-H226): 100.29%; Activity (HOP-62): 83.75%; Activity (EKVX): 115.74%; Activity (A549): 98.55%; Activity (SR): 100.2%; Activity (RPMI-8226): 100.95%; Activity (MOLT-4): 108.49%; Activity (HL-60(TB)): 96.52%; Activity (SK-MEL-28): 99.72%; Activity (SK-MEL-2): 106.73%; Activity (MDA-MB-435): 104.58%; Activity (M14): 96.9%; Activity (Malme-3M): 121.77%; Activity (LOX IMVI): 99.28%; Activity (SNB-75): 85.3%; Activity (SF-295): 86.6%; Activity (SW-620): 116.34%; Activity (KM12): 109.29%; Activity (NCI-H460): 102.18%
4 | COc1ccc(Nn2c(SCC(=O)Nc3nc(-c4ccc(Cl)cc4)cs3)nc(C)c2C)cc1 | 70.85 | 49.53 | 48.91 | 39.43 | 86.14 | 79.62 | 39.41 | 68.5 | 67.16 | 59.54 | 69.49 | 43.88 | 30.81 | 26.17 | 59.76 | 27.81 | 79.56 | 66.22 | 111.9 | 31.88 | Activity (NCI-H226): 60.46%; Activity (HOP-62): 100.44%; Activity (EKVX): 41.94%; Activity (A549): 44%; Activity (SR): 40.3%; Activity (RPMI-8226): 35.7%; Activity (MOLT-4): 36.1%; Activity (SK-MEL-28): 82.63%; Activity (SK-MEL-2): 90.48%; Activity (MDA-MB-435): 50.36%; Activity (M14): 62.46%; Activity (Malme-3M): 99.15%; Activity (LOX IMVI): 38.91%; Activity (SNB-75): 56.63%; Activity (SF-295): 43.89%; Activity (SW-620): 75.2%; Activity (KM12): 43.08%; Activity (NCI-H460): 39.32%
